Results reported in paper PMC12406196, “Anticoronavirus Activity of Uridine Glycoconjugates Containing a 1,2,3-Triazole Moiety” (Journal of Medicinal Chemistry, 2025).
Entries after “also recorded” stand apart in the source; their conditions may differ.

Legend:
LR7 cells = experiment: MTS-based cell viability assay in LR7 cells; parameters: species or system mouse; conditions: 50 μM, uninfected LR7 cells
Protocol: LR7, LLC-Mk2 or Vero cells were seeded in 96-well plates and cultured overnight. Next, the medium was changed to a new one supplemented with different concentrations (in triplicate) of analyzed compounds. Following the 2 days (LR7 and Vero) or 4 days (LLC-Mk-2) of incubation, CellTiter 96 AQueous nonradioactive cell proliferation assay (Promega) was performed according to the manufacturer’s instruction. The half-maximal cytotoxic concentration (CC50) was calculated as the concentration of a compound needed to reduce cell viability by 50% using GraphPad Prism software (version 5.01, GraphPad Software, San Diego, CA).

[1] = test system: human coronavirus strain NL63 (HCoV-NL63); experiment: HCoV-NL63 N protein expression in LLC-Mk2 cells, Western blot and densitometry; assay type: cell-based; conditions: 50 μM, MOI 0.01, 4 days p.i., Western blot/densitometry
Protocol: LLC-Mk2 monolayers grown in 24-well plates were infected with HCoV-NL63 at an MOI value of 0.01 for 2 h. Unbound virus was removed, and cells were cultured in medium supplemented with different concentrations of compounds. Four days postinfection, cells were collected and lysed in CellLyticM Cell Lysis Reagent (Sigma). Following the protein separation by SDS-PAGE and transfer to PVDF membranes, proteins were immunoblotted using specific mouse anti-N NL63 Abs (Eurofins, Spain) or rabbit anti-β-catenin Abs (Santa Cruz), followed by antimouse or antirabbit secondary antibodies conjugated with HRP. Proteins were visualized and analyzed by chemiluminescence using the UVITEC Cambridge Alliance MINI HD detection system. The densitometric analysis of cells treated with 50 μM dose of a panel of glycoconjugates was performed based on three biological replicates of N and β-catenin immunoblots. The N protein levels were expressed as a percentage relative to DMSO-treated infected cells, while β-catenin levels were expressed as a percentage relative to noninfected control cells. The data were presented as the ratio of N/β-catenin for each sample, normalized accordingly.

[2] = test system: murine hepatitis virus strain A59 (MHV); experiment: Reduction of MHV cytopathic effect (CPE) in LR7 cells, MTS/PMS readout; assay type: cell-based; conditions: 50 μM, MOI 0.01, 24 h
Protocol: LR7 cells were seeded in a 96-well plate and cultured overnight. Next, the cells were infected with MHV at an MOI value of 0.01 in medium without FBS. Following 1 h of incubation, the medium containing the virus was collected and cells were covered with a medium supplemented with different concentrations (in triplicate) of the analyzed compounds or DMSO. 24 h p.i. cells viability was evaluated by CellTiter 96 AQueous nonradioactive cell proliferation assay (Promega) according to the manufacturer’s instruction.

SARS-CoV-2 replicon = assay type: cell-based

Compound | reduction of cell viability (cytotoxicity in uninfected cells) (LR7 cells) | HCoV-NL63 N protein level [1] | protection against MHV-induced CPE [2] | inhibition of SARS-CoV-2 replication (replicon) (SARS-CoV-2 replicon)
CC(=O)OC[C@H]1O[C@@H](NC(=O)Cn2cc(CNC(=O)[C@H]3O[C@@H](n4ccc(=O)[nH]c4=O)[C@H](O[Si](C)(C)C(C)(C)C)[C@@H]3O[Si](C)(C)C(C)(C)C)nn2)[C@H](OC(C)=O)[C@@H](OC(C)=O)[C@@H]1OC(C)=O [Compound 18, N-Uracil [((1-(2-oxo-(2″,3″,4″,6″-tetra-O-Acetyl-β-D-glucopyranosyl)-amino)-ethyl)-1,2-3-triazol-4-yl)-methyl]-1′-deoxy-2′,3′-di-O-tert-butyldimethylsilyl-β-D-ribofuranuronamide] | 10–30% | No significant reduction | limited anti-MHV activity | 
CC(=O)OC[C@H]1O[C@@H](OCCn2cc(CNC(=O)[C@H]3O[C@@H](n4ccc(=O)[nH]c4=O)[C@H](O[Si](C)(C)C(C)(C)C)[C@@H]3O[Si](C)(C)C(C)(C)C)nn2)[C@H](OC(C)=O)[C@@H](OC(C)=O)[C@@H]1OC(C)=O [Compound 16, N-Uracil [(1-(2″,3″,4″,6″-tetra-O-Acetyl-β-D-glucopyranosyloxyethyl)-1,2-3-triazol-4-yl)-methyl]-1′-deoxy-2′,3′-di-O-tert-butyldimethylsilyl-β-D-ribofuranuronamide] | 10–30% | No significant reduction |  | 
CC(=O)OC[C@H]1O[C@@H](SCn2cc(CNC(=O)[C@H]3O[C@@H](n4ccc(=O)[nH]c4=O)[C@H](O[Si](C)(C)C(C)(C)C)[C@@H]3O[Si](C)(C)C(C)(C)C)nn2)[C@H](OC(C)=O)[C@@H](OC(C)=O)[C@@H]1OC(C)=O [Compound 22, N-Uracil [(1-(2″,3″,4″,6″-tetra-O-Acetyl-β-D-glucopyranosylthiomethyl)-1,2-3-triazol-4-yl)-methyl]-1′-deoxy-2′,3′-di-O-tert-butyldimethylsilyl-β-D-ribofuranuronamide] | no detectable toxicity | No significant reduction | significantly reduced cell death | 
CC(=O)OC[C@H]1O[C@@H](OCc2cn(C[C@H]3O[C@@H](n4ccc(=O)[nH]c4=O)[C@H](O[Si](C)(C)C(C)(C)C)[C@@H]3O[Si](C)(C)C(C)(C)C)nn2)[C@H](OC(C)=O)[C@@H](OC(C)=O)[C@@H]1OC(C)=O [Compound 14, 2′,3′-di-O-tert-Butyldimethylsilyl-5′-deoxy-5′-[4-(2″,3″,4″,6″-tetra-O-acetyl-β-D-glucopyranosyloxymethyl)-1,2-3-triazol-1-yl]-uridine] | 10–30% | significantly reduced; also recorded: weaker activity against HCoV-NL63 | significantly reduced cell death | 
CC(=O)OC[C@H]1O[C@@H](SCn2cc(COC[C@H]3O[C@@H](n4ccc(=O)[nH]c4=O)[C@H](O[Si](C)(C)C(C)(C)C)[C@@H]3O[Si](C)(C)C(C)(C)C)nn2)[C@H](OC(C)=O)[C@@H](OC(C)=O)[C@H]1OC(C)=O [Compound 25, 2′,3′-di-O-tert-Butyldimethylsilyl-5′-O-[(1-(2″,3″,4″,6″-tetra-O-acetyl-β-D-galactopyranosylthiomethyl)-1,2-3-triazol-4-yl)-methyl]-uridine] |  | significantly reduced; also recorded: No N protein was detected | lower activity against MHV | 
CC(=O)OC[C@H]1O[C@@H](OCCn2cc(CNC(=O)[C@H]3O[C@@H](n4ccc(=O)[nH]c4=O)[C@H](O[Si](C)(C)C(C)(C)C)[C@@H]3O[Si](C)(C)C(C)(C)C)nn2)[C@H](OC(C)=O)[C@@H](OC(C)=O)[C@H]1OC(C)=O [Compound 17, N-Uracil [(1-(2″, 3″, 4″, 6″-tetra-O-Acetyl-β-D-galactopyranosyloxyethyl)-1,2-3-triazol-4-yl)-methyl]-1′-deoxy-2′,3′-di-O-tert-butyldimethylsilyl-β-D-ribofuranuronamide] | 10–30% | No significant reduction |  | 
CC(=O)OC[C@H]1O[C@@H](SCn2cc(CNC(=O)[C@H]3O[C@@H](n4ccc(=O)[nH]c4=O)[C@H](O[Si](C)(C)C(C)(C)C)[C@@H]3O[Si](C)(C)C(C)(C)C)nn2)[C@H](OC(C)=O)[C@@H](OC(C)=O)[C@H]1OC(C)=O [Compound 23, N-Uracil [(1-(2″,3″,4″,6″-tetra-O-Acetyl-β-D-galactopyranosylthiomethyl)-1,2-3-triazol-4-yl)-methyl]-1′-deoxy-2′,3′-di-O-tert-butyldimethylsilyl-β-D-ribofuranuronamide] | 10–30% | No significant reduction |  | 
CC(C)(C)[C@H](NC(=O)C(F)(F)F)C(=O)N1C[C@H]2[C@@H]([C@H]1C(=O)N[C@H](C#N)C[C@@H]1CCNC1=O)C2(C)C [nirmatrelvir, reference compound] |  |  |  | inhibited SARS-CoV-2 replication
CC(=O)OC[C@H]1O[C@@H](NC(=O)Cn2cc(CNC(=O)[C@H]3O[C@@H](n4ccc(=O)[nH]c4=O)[C@H](O[Si](C)(C)C(C)(C)C)[C@@H]3O[Si](C)(C)C(C)(C)C)nn2)[C@H](OC(C)=O)[C@@H](OC(C)=O)[C@H]1OC(C)=O [Compound 19, N-Uracil [((1-(2-oxo-(2″,3″,4″,6″-tetra-O-Acetyl-β-D-galactopyranosyl)-amino)-ethyl)-1,2-3-triazol-4-yl)-methyl]-1′-deoxy-2′,3′-di-O-tert-butyldimethylsilyl-β-D-ribofuranuronamide] | 10–30% | No significant reduction | limited anti-MHV activity | 
